Our source for the IC50 values is US12421225B2, “Heteroaromatic amide derivative and medicament containing the same” (KAKEN PHARMACEUTICAL CO., LTD., priority 2018, dated 2025).

Structures are written as SMILES. pIC50: −log10 of the molar value.

One series addresses human Nav1.5 (Homo sapiens (Human), UniProt Q14524). Put plainly: Human Nav1.5 inhibitory activity evaluation (automated patch clamp QPatch16X, HEK293 cells stably expressing human Nav1.5). Format: cell-based. The following applies: HEK293 cells stably expressing human Nav1.5, automated patch clamp QPatch16X. A digest of the protocol:
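Whole-cell automated patch clamp at room temperature on HEK293 stably expressing human Nav1.5; holding −80 mV, 20 consecutive cardiomyocyte action-potential-like test pulses before and after compound (0.1% DMSO). Inhibition measured on inward current at 20th pulse; IC50 from concentration-response curve.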

Another series deals with human Nav1.7 (Homo sapiens (Human), UniProt Q15858). Put plainly: Human Nav1.7 inhibitory activity evaluation (automated patch clamp QPatch16X, HEK293A cells stably expressing human Nav1.7 and human Navβ1). Format: cell-based. The following applies: HEK293A cells stably expressing human Nav1.7 and human Navβ1, automated patch clamp QPatch16X. A digest of the protocol:
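QPatch16X whole-cell recordings at room temperature from HEK293A cells stably expressing human Nav1.7 with Navβ1, CsF-based internal solution, pH 7.4 external, 0.1% DMSO. From −100 mV holding, protocol included a 15 s hold at a potential inactivating ~30-40% of channels; IC50 from inward current at the second −10 mV pulse.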

Sequence of human Nav1.7 (Q15858 whole entry): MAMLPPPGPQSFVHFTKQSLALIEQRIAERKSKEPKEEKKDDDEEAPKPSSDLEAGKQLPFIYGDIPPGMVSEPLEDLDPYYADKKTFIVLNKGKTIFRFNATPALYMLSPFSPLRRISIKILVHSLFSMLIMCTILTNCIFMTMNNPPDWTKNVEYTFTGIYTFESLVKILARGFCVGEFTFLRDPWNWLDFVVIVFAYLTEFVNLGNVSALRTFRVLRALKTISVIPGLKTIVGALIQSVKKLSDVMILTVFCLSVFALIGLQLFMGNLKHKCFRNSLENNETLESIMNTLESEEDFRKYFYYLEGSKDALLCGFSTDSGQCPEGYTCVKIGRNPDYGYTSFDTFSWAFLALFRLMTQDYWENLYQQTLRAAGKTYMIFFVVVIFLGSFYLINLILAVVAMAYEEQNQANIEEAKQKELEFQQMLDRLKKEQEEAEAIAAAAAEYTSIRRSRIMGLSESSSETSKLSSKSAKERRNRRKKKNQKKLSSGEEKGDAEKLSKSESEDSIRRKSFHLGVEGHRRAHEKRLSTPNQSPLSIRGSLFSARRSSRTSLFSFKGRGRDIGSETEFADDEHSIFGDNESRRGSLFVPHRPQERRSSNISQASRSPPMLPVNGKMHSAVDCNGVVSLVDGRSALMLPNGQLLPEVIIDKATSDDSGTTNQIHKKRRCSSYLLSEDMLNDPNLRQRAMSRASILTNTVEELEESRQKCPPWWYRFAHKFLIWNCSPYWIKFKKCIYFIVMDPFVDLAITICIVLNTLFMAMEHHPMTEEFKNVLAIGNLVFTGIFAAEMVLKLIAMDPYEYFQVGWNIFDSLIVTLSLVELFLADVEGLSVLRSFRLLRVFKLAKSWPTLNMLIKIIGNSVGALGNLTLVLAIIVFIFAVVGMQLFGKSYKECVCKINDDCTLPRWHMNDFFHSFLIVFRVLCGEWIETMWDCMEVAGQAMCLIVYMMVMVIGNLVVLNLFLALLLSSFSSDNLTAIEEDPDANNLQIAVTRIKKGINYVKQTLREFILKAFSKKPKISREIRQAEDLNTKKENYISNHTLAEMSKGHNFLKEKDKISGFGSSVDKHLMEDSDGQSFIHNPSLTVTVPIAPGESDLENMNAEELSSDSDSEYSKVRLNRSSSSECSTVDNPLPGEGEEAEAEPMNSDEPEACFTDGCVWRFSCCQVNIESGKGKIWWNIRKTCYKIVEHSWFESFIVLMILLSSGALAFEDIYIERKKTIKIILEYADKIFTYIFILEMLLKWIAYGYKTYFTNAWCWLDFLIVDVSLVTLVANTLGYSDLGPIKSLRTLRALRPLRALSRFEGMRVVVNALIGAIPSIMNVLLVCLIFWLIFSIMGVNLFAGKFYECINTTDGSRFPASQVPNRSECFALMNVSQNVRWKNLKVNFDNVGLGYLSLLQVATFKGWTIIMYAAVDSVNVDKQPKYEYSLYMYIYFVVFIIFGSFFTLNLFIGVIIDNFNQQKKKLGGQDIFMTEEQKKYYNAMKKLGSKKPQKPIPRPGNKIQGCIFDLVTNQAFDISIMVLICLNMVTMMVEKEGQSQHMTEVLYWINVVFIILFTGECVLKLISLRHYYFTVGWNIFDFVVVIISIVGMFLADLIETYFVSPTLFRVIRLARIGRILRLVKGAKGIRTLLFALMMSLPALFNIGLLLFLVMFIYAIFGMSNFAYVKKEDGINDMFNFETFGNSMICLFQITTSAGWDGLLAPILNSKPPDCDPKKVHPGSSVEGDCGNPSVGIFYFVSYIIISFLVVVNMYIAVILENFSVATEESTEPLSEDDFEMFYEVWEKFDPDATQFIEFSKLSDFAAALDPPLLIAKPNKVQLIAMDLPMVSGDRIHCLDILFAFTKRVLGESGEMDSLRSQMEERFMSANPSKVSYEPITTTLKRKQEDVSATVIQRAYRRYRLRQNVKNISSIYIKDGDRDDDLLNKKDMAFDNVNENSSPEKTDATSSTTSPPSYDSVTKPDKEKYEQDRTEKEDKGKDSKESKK
Sequence of human Nav1.7 (Q07699 19-218 partner): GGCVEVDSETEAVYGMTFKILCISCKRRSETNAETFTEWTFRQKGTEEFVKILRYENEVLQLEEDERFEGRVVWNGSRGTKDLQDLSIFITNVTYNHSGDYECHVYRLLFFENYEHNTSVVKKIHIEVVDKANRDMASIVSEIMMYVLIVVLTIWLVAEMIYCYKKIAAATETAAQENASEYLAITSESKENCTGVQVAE
Sequence of human Nav1.5 (Q14524 whole entry): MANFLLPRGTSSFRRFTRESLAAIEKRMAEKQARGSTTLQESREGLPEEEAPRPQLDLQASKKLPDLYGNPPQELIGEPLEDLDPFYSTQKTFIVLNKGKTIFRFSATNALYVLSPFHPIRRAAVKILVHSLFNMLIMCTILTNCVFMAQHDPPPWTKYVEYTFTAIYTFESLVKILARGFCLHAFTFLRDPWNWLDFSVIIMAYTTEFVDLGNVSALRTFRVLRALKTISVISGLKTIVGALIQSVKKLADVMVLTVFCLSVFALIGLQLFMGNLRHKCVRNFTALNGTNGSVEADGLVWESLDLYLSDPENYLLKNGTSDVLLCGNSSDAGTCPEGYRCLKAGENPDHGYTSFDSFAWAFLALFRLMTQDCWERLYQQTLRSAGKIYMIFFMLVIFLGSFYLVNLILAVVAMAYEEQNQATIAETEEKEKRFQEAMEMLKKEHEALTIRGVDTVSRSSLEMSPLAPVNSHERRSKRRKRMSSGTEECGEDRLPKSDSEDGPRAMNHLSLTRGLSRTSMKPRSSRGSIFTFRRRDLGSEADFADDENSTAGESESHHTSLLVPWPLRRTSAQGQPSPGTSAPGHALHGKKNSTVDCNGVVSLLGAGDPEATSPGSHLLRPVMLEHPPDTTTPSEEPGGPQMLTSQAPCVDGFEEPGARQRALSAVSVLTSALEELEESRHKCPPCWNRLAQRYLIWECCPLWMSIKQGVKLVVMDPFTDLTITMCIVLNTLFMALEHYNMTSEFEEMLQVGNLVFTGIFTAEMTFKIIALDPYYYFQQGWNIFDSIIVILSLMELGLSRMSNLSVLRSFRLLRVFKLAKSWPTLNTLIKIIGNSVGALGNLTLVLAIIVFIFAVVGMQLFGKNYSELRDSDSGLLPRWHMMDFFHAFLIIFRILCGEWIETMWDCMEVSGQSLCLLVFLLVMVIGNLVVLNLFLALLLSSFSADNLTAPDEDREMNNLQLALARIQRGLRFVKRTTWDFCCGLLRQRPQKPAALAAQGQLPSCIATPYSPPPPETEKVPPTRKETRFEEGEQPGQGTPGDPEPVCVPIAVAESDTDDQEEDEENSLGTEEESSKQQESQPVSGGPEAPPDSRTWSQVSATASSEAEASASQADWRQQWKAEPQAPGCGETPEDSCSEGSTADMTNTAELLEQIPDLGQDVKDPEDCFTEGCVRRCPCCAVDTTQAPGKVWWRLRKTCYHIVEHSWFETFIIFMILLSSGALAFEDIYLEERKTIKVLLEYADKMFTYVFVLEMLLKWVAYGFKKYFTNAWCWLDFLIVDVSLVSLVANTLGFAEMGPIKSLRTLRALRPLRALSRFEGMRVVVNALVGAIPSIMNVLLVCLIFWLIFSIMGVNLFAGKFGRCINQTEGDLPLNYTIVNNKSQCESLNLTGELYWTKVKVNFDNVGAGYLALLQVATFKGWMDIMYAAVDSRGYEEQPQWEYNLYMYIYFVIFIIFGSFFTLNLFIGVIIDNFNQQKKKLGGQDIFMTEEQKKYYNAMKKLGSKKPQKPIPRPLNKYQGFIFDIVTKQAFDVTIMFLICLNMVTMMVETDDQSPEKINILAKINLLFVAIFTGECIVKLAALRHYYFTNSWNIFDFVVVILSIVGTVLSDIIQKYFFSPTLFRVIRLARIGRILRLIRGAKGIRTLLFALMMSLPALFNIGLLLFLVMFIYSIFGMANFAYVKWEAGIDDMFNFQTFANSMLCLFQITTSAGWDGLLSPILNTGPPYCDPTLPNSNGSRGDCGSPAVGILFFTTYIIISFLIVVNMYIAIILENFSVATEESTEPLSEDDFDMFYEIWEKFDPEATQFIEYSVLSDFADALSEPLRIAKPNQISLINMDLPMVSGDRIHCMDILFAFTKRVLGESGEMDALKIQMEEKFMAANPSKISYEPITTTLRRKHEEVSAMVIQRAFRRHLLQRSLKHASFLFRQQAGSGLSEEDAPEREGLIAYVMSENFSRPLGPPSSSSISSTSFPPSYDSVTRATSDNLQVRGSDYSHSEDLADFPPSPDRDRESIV

For `COc1ncc(C(F)(F)F)cc1C1CCc2nc(C(=O)N3CCOC(c4ccc(F)cc4F)C3)cn2C1` (stereo not drawn) [Example 32], the figures for the pIC50 on human Nav1.5 and at human Nav1.7 were 5.52 to 6.00 and > 5.00, respectively.
On the same counts, the results for `O=C(N[C@H]1COc2ccccc2C1)c1cn2c(n1)CCC(COc1ccccc1)C2` (stereo partly drawn) [Example 33] are 5.52 to 6.00 and > 6.00.
`CC(C)(C)OCC1CCc2nc(C(=O)N[C@H]3COc4ccccc4C3)cn2C1` (stereo partly drawn) [Example 34]: the pIC50 was ≤ 5.52 on human Nav1.5 and > 5.00 on human Nav1.7.
The corresponding values for `O=C(N[C@H]1COc2ccccc2C1)c1cn2c(n1)CCC(C1(F)CCC1)C2` (stereo partly drawn) [Example 35] are 5.52 to 6.00 and > 6.00.
The corresponding values for `CC(C)(C)C1CCc2nc(C(=O)N[C@H]3COc4ccccc4C3)cn2C1` (stereo partly drawn) [Example 36] are ≤ 5.52 and > 6.00.
On to `O=C(N[C@H]1COc2ccc(Cl)cc2C1)c1cn2c(n1)CCC(OCC(F)(F)F)C2` (stereo partly drawn) [Example 38], for which the pIC50 is ≤ 5.52 against human Nav1.5 and > 5.00 against human Nav1.7.
Regarding `CC(C)COC1CCc2nc(C(=O)N[C@H]3COc4ccccc4C3)cn2C1` (stereo partly drawn) [Example 41], the values for the negative-log IC50 (pIC50) against human Nav1.5 and on human Nav1.7 were ≤ 5.52 and > 5.00, respectively.
On the same counts, the results for `Cc1ccc(C2Cn3cc(C(=O)N[C@H]4COc5ccccc5C4)nc3CN2)s1` (stereo partly drawn) [Example 43] are ≤ 5.52 and > 5.00.
On the same counts, the results for `O=C(N[C@H]1COc2ccccc2C1)c1cn2c(n1)CNC(c1cccc(C(F)(F)F)n1)C2` (stereo partly drawn) [Example 46] are 5.52 to 6.00 and > 5.00.
With `CN1Cc2nc(C(=O)N[C@H]3COc4cccc(F)c4C3)cn2CC1c1cccc(C(F)(F)F)n1` (stereo partly drawn) [Example 47], the values for the negative logarithm of the IC50 (pIC50) at human Nav1.5 and at human Nav1.7 were ≤ 5.52 and > 5.00, respectively.
Take `CC(C)CCC1Cn2cc(C(=O)N[C@H]3COc4ccccc4C3)nc2CN1` (stereo partly drawn) [Example 49]: the negative-log IC50 (pIC50) against human Nav1.5 is ≤ 5.52; at human Nav1.7, > 5.00.
The corresponding values for `O=C(N[C@H]1COc2ccccc2C1)c1cn2c(n1)CNC(CCC1CCCC1)C2` (stereo partly drawn) [Example 51] are 5.52 to 6.00 and > 6.00.
Take `CN1Cc2nc(C(=O)N[C@H]3COc4ccccc4C3)cn2CC1CCC1CCCC1` (stereo partly drawn) [Example 52]: the negative-log IC50 (pIC50) against human Nav1.5 is 5.52 to 6.00; against human Nav1.7 it was > 6.00.
Regarding `O=C(N[C@H]1COc2ccccc2C1)c1cn2c(n1)CNC(CCCc1ccccc1)C2` (stereo partly drawn) [Example 55], the figures for the pIC50 on human Nav1.5 and on human Nav1.7 were 5.52 to 6.00 and > 6.00, respectively.
The corresponding values for `CN1Cc2nc(C(=O)NC3COc4ccccc4C3)cn2CC1c1ccccc1` (stereo not drawn) [Example 57] are > 6.00 and > 6.00.
Regarding `CN1Cc2nc(C(=O)NCCc3ccccc3)cn2CC1c1ccccc1` (stereo not drawn) [Example 58], the negative-log IC50 (pIC50) against human Nav1.5 was ≤ 5.52; on human Nav1.7, > 5.00.
In the case of `O=C(N[C@H]1COc2ccccc2C1)c1cn2c(n1)CNC(C1CCCC1)C2` (stereo partly drawn) [Example 59], the pIC50 is ≤ 5.52 against human Nav1.5 and > 5.00 on human Nav1.7.
Turning to `CN1Cc2nc(C(=O)NCCc3cccc(N4CCOCC4)c3)cn2CC1c1ccccc1` (stereo not drawn) [Example 62], the values for the pIC50 on human Nav1.5 and against human Nav1.7 were ≤ 5.52 and > 5.00, respectively.
On the same counts, the results for `O=C(N[C@H]1COc2ccccc2C1)c1nc2n(c1-c1ccccc1)CCOC2` [Example 64] are > 6.00 and > 5.00.
The corresponding values for `COc1cccc(-c2c(C(=O)N[C@H]3COc4ccc(Cl)cc4C3)nc3n2CCOC3)n1` [Example 65] are > 6.00 and > 6.00.
The corresponding values for `O=C(N[C@H]1COc2ccc(Cl)cc2C1)c1nc2n(c1-c1ccccn1)CCOC2` [Example 66] are > 6.00 and > 5.00.
In the case of `O=C(N[C@H]1COc2ccc(C(F)(F)F)cc2C1)c1nc2n(c1-c1ccccn1)CCOC2` [Example 67], the negative-log IC50 (pIC50) at human Nav1.5 and against human Nav1.7 was > 6.00 in each case.
Regarding `Cc1ccccc1C1CCn2nc(C(=O)N[C@H]3COc4ccccc4C3)cc2C1` (stereo partly drawn) [Example 68], the results for the negative logarithm of the IC50 (pIC50) against human Nav1.5 and against human Nav1.7 were ≤ 5.52 and > 5.00, respectively.
For `O=C(N[C@H]1COc2ccc(Br)cc2C1)c1cc2n(n1)CCC(c1ccccc1F)O2` (stereo partly drawn) [Example 71], the pIC50 against human Nav1.5 and on human Nav1.7 was > 6.00 each time.
Take `N#Cc1ccc2c(c1)C[C@@H](NC(=O)c1cc3n(n1)CCC(c1ccccc1C#N)O3)CO2` (stereo partly drawn) [Example 72]: the negative logarithm of the IC50 (pIC50) at human Nav1.5 was ≤ 5.52; on human Nav1.7 it was > 6.00.
On the same counts, the results for `COc1ncccc1C1CCn2nc(C(=O)N[C@H]3COc4ccc(C#N)cc4C3)cc2O1` (stereo partly drawn) [Example 75] are ≤ 5.52 and > 6.00.
On the same counts, the results for `CCc1ccc2c(c1)C[C@@H](NC(=O)c1cc3n(n1)CCC(c1ccccc1F)O3)CO2` (stereo partly drawn) [Example 76] are ≤ 5.52 and > 6.00.
Turning to `O=C(NC1COc2cccc(Cl)c2C1)c1cc2n(n1)CCC(c1ccccc1)O2` (stereo not drawn) [Example 77], the pIC50 is ≤ 5.52 against human Nav1.5 and > 6.00 against human Nav1.7.
On the same counts, the results for `O=C(NC1COc2cccc(OC(F)(F)F)c2C1)c1cc2n(n1)CCC(c1ccccc1)O2` (stereo not drawn) [Example 78] are ≤ 5.52 and > 5.00.
On the same counts, the results for `CCOc1cccc(CCNC(=O)c2cc3n(n2)CCC(c2ccccc2)O3)c1` (stereo not drawn) [Example 79] are ≤ 5.52 and > 5.00.
In the case of `O=C(N[C@H]1COc2ccc(-c3ccncc3)cc2C1)c1cc2n(n1)CCC(c1ccccc1F)O2` (stereo partly drawn) [Example 80], the pIC50 on human Nav1.5 was ≤ 5.52; against human Nav1.7, > 6.00.
The corresponding values for `O=C(N[C@H]1COc2ccc(-c3ccccn3)cc2C1)c1cc2n(n1)CCC(c1ccccc1F)O2` (stereo partly drawn) [Example 81] are ≤ 5.52 and > 6.00.
On the same counts, the results for `CCOCc1ccc2c(c1)C[C@@H](NC(=O)c1cc3n(n1)CCC(c1ccccc1F)O3)CO2` (stereo partly drawn) [Example 83] are 5.52 to 6.00 and > 6.00.
On to `O=C(N[C@H]1COc2ccc(COC3CCOCC3)cc2C1)c1cc2n(n1)CCC(c1ccccc1F)O2` (stereo partly drawn) [Example 84], for which the results for the pIC50 at human Nav1.5 and on human Nav1.7 were ≤ 5.52 and > 5.00, respectively.
On to `CC1CCn2nc(C(=O)N[C@H]3COc4ccc(Cl)cc4C3)cc2O1` (stereo partly drawn) [Example 85], for which the values for the pIC50 against human Nav1.5 and against human Nav1.7 were ≤ 5.52 and > 6.00, respectively.
In the case of `C[C@H]1CCn2nc(C(=O)N[C@H]3COc4ccc(Cl)cc4C3)cc2O1` [Example 86], the negative-log IC50 (pIC50) on human Nav1.5 was ≤ 5.52; at human Nav1.7 it was > 6.00.
As for `C[C@@H]1CCn2nc(C(=O)N[C@H]3COc4ccc(Cl)cc4C3)cc2O1` [Example 87], the pIC50 on human Nav1.5 was ≤ 5.52; at human Nav1.7, > 5.00.
The corresponding values for `CCC1CCn2nc(C(=O)N[C@H]3COc4ccc(Cl)cc4C3)cc2O1` (stereo partly drawn) [Example 90] are 5.52 to 6.00 and > 6.00.
On the same counts, the results for `CCC1CCn2nc(C(=O)N[C@H]3COc4ccc(C#N)cc4C3)cc2O1` (stereo partly drawn) [Example 91] are ≤ 5.52 and > 5.00.
On the same counts, the results for `CCCC1CCn2nc(C(=O)N[C@H]3COc4ccc(C#N)cc4C3)cc2O1` (stereo partly drawn) [Example 94] are 5.52 to 6.00 and > 6.00.
In the case of `N#Cc1ccc2c(c1)C[C@@H](NC(=O)c1cc3n(n1)CCC(CC1CC1)O3)CO2` (stereo partly drawn) [Example 96], the pIC50 against human Nav1.5 was 5.52 to 6.00; against human Nav1.7, > 6.00.
On the same counts, the results for `CCCOCC1CCn2nc(C(=O)N[C@H]3COc4ccc(C#N)cc4C3)cc2O1` (stereo partly drawn) [Example 100, N—((R)-6-cyanochroman-3-yl)-5-(propoxymethyl)-6,7-dihydro-5H-pyrazolo[5,1-b][1,3]oxazine-2-carboxamide] are ≤ 5.52 and > 5.00.
Regarding `O=C(N[C@H]1COc2ccc(Cl)cc2C1)c1cc2n(n1)CCC(COCc1cccc(C(F)(F)F)n1)O2` (stereo partly drawn) [Example 105], the pIC50 at human Nav1.5 and on human Nav1.7 was > 6.00 throughout.
For `O=C(N[C@H]1COc2ccc(CC(F)F)cc2C1)c1cc2n(n1)CCC(COCC1CC1)O2` (stereo partly drawn) [Example 108], the figures for the pIC50 against human Nav1.5 and against human Nav1.7 were 5.52 to 6.00 and > 6.00, respectively.
On the same counts, the results for `O=C(N[C@H]1COc2ccc(-c3ccccn3)cc2C1)c1cc2n(n1)CCC(COCC1CC1)O2` (stereo partly drawn) [Example 110] are ≤ 5.52 and > 6.00.
In the case of `CC1(COCC2CCn3nc(C(=O)N[C@H]4COc5ccc(C#N)cc5C4)cc3O2)CC1` (stereo partly drawn) [Example 112], the pIC50 is ≤ 5.52 at human Nav1.5 and > 6.00 against human Nav1.7.
The corresponding values for `O=C(N[C@H]1COc2ccc(Cl)cc2C1)c1cc2n(n1)CCC(COc1ccccn1)O2` (stereo partly drawn) [Example 117] are > 6.00 and > 6.00.
Consider `N#Cc1ccc2c(c1)C[C@@H](NC(=O)c1cc3n(n1)CCC(COc1ccccc1)O3)CO2` (stereo partly drawn) [Example 118], for which the pIC50 on human Nav1.5 and against human Nav1.7 was > 6.00 throughout.
For `O=C(N[C@H]1COc2ccc(Cl)cc2C1)c1cc2n(n1)CCC(CN1CCOCC1)O2` (stereo partly drawn) [Example 122], the figures for the pIC50 against human Nav1.5 and against human Nav1.7 were ≤ 5.52 and > 5.00, respectively.
`CCOCC1CCn2nc(C(=O)N[C@H]3COc4ccc(-c5ccccn5)cc4C3)cc2O1` (stereo partly drawn) [Example 123]: the pIC50 at human Nav1.5 is ≤ 5.52; at human Nav1.7 it was > 5.00.
The corresponding values for `CCOCC1CCn2nc(C(=O)N[C@H]3COc4ccc(-c5ccc(C#N)nc5)cc4C3)cc2O1` (stereo partly drawn) [Example 125] are ≤ 5.52 and > 5.00.
With `O=C(N[C@H]1COc2ccc(CC(F)F)cc2C1)c1cc2n(n1)CCC(COCC(F)(F)F)O2` (stereo partly drawn) [Example 126], the pIC50 at human Nav1.5 was 5.52 to 6.00; at human Nav1.7 it was > 6.00.
`O=C(N[C@H]1COc2ccc(-c3ccccn3)cc2C1)c1cc2n(n1)CCC(COCC(F)(F)F)O2` (stereo partly drawn) [Example 130]: the results for the negative logarithm of the IC50 (pIC50) at human Nav1.5 and against human Nav1.7 were ≤ 5.52 and > 5.00, respectively.
The corresponding values for `O=C(N[C@H]1COc2ccc(CC(F)F)cc2C1)c1cc2n(n1)CCC(COC(F)(F)F)O2` (stereo partly drawn) [Example 135] are 5.52 to 6.00 and > 6.00.
